How the values were obtained:
[1] = Particle size distribution by laser diffraction (Malvern apparatus); format: physicochemical; settings: micronised beclometasone dipropionate; for Span: [d(v,0.9)−d(v,0.1)]/d(v,0.5); for d (v, 0.1): volume diameter of 10% of the particles; for d (v, 0.5): volume diameter of 50% of the particles; for d (v, 0.9): volume diameter of 90% of the particles
Procedure: The size of the particles active is determined by measuring the characteristic equivalent sphere diameter, known as volume diameter, by laser diffraction. In the reported examples, the volume diameter has been determined using a Malvern apparatus, However, other equivalent apparatus may be used by the skilled person in the art.
(§1) The particle size was determined by laser diffraction using a Malvern apparatus. The parameter taken into consideration was the VD in micron of 10%, 50% and 90% of the particles expressed as d(v,0.1), d(v, 0.5) and d(v, 0.9), respectively, which correspond to the mass diameter assuming a size independent density for the particles. The span [d(v,0.9)−d(v,0.1)]/d(v,0.5) is also reported. The Specific Surface Area (SSA) was determined by BET nitrogen adsorption using a Coulter SA3100 apparatus as a mean of three determinations.

[2] = Specific Surface Area by BET nitrogen adsorption (Coulter SA3100); format: physicochemical; settings: micronised beclometasone dipropionate; mean of three determinations
Procedure: Advantageously, the micronized particles of BDP have also a specific surface area comprised between 5.5 and 7.0 m^2/g, preferably between 5.9 and 6.8 m^2/g. The Specific Surface Area is determined by Brunauer-Emmett-Teller (BET) nitrogen adsorption method according to a procedure known in the art.
as §1

| Span [1] | d (v, 0.1) [1] | d (v, 0.5) [1] | d (v, 0.9) [1] | SSA [2] | SMILES |
| --- | --- | --- | --- | --- | --- |
| 1.31 | 0.96 μm | 1.81 μm | 3.33 μm | 5.90 m^2/g | CCC(=O)OCC(=O)[C@@]1(OC(=O)CC)[C@@H](C)C[C@H]2[C@@H]3CCC4=CC(=O)C=C[C@]4(C)[C@@]3(Cl)[C@@H](O)C[C@@]21C [Batch 2, beclometasone dipropionate] |
| 1.19 | 0.95 μm | 1.71 μm | 2.97 μm | 6.12 m^2/g | CCC(=O)OCC(=O)[C@@]1(OC(=O)CC)[C@@H](C)C[C@H]2[C@@H]3CCC4=CC(=O)C=C[C@]4(C)[C@@]3(Cl)[C@@H](O)C[C@@]21C [Batch 3, beclometasone dipropionate] |
| 1.41 | 0.86 μm | 1.63 μm | 3.15 μm | 6.61 m^2/g | CCC(=O)OCC(=O)[C@@]1(OC(=O)CC)[C@@H](C)C[C@H]2[C@@H]3CCC4=CC(=O)C=C[C@]4(C)[C@@]3(Cl)[C@@H](O)C[C@@]21C [Batch 1, beclometasone dipropionate] |
| 1.54 | 0.91 μm | 1.84 μm | 3.76 μm | 6.28 m^2/g | CCC(=O)OCC(=O)[C@@]1(OC(=O)CC)[C@@H](C)C[C@H]2[C@@H]3CCC4=CC(=O)C=C[C@]4(C)[C@@]3(Cl)[C@@H](O)C[C@@]21C [Batch 4, beclometasone dipropionate] |

— patent US10946029B2, “Dry powder formulation comprising a corticosteroid and a beta-adrenergic for administration by inhalation” (CHIESI FARMACEUTICI S.p.A., priority 2012, dated 2021)
